Test results as given in patent US8200312B2, “Apparatus for monitoring a system pressure in space with time and method for assessing drug delivery and resistance to therapy and product” (Yeda Research and Development Co. Ltd., priority 2006, dated 2012).
Entries after “also recorded” stand apart in the source; their conditions may differ.

Legend:
fibrosarcoma mouse model = settings: cited from earlier work
tumors = settings: intra-tumoral injection; cited from earlier work
[1] = tested on: ectopic human non-small-cell lung cancer and orthotopic MCF7 human breast tumors; settings: slow infusion for ~2 hours; cited from earlier work
[2] = as previously reported (44); cited from earlier work
[3] = tested on: human osteosarcoma xenografts; settings: collagenase (0.1%), cited from earlier work
H460 tumors = test: Steady-state tissue GdDTPA concentration maps (T1 relaxation MRI) before and after collagenase; type: in vivo, female CD1-NU immunodeficient mice
Procedure: (§1) Collagenase catalyzes the degradation of collagen fibers. Changing the collagen microfibrillar network in tumors modulates the extracellular matrix and causes a decrease in IFP (10, 26). H460 tumors were monitored during infusion, in the dynamic period and at steady state 24 h before and ˜5 h after collagenase administration (0.4 mg/kg body w). […] Similarly, maps of transcapillary transfer due to pressure gradients, k^ΔP, and the profiles of this parameter across the tumor indicated a change, particularly in the tumor's central region, from a negative k^ΔP before collagenase to a null or positive k^ΔP after collagenase (FIG. 6).
(§2) Human NCI-H460 non small cell lung cancer (NSCLC) cells were cultivated and implanted into the flanks of female CD1-NU immunodeficient mice, as previously described (4). During the MRI experiments, mice were anaesthetized by inhalation of 1% isofluorane (Medeva Pharmaceuticals, Inc., Rochester, N.Y., USA) in an O2/N2O (3:7) mixture applied through a nose cone (4). Collagenase (Sigma-Aldrich, St Louis, Mo., USA) treatment was applied by i.v. injection of 0.4 mg/kg body w of this enzyme (1 mg=161 collagen digestion units).
(§3) Tissue contrast agent concentration at steady state infusion was determined from measurements of T1 relaxation rates before, and at 90 min after the start of the intravenous infusion of the contrast agent as previously described (4). For the dynamic measurements 3-dimensional T1. weighted gradient echo images were recorded using TErTR=2.1/18.3 ms and flip angle=45°, 47 s temporal resolution. After recording 5 pre-contrast images, slow infusion of GdDTPA (gadopentate-dimeglumine, Schering, Berlin, Germany) was initiated at a rate of 0.011 mmol/min/kg body wt. for a total time of 120 min.
Tissue GdDTPA concentration (CGd) at steady state was calculated at pixel resolution from the T1 measurements, as previously described (4).

[4] = tested on: H460 human non-small-cell lung cancer tumors; test: Dynamic contrast-enhanced MRI during slow GdDTPA infusion: vascular parameters before and after collagenase; type: in vivo, female CD1-NU immunodeficient mice
Procedure: as §1, §2
MRI scanning was performed on a 4.7-T Biospec spectrometer (Bruker Biospin, Rheinstetten, Germany) employing the same spatial resolution of 0.2×0.2×1 mm^3 in all protocols. Delineation of the boundary of the tumors and determination of their volume was achieved by analyzing images recorded with a 2-dimensional fast spin echo sequence using […] as previously described (40).
as §3
Analysis of the dynamic data collected during the slow infusion was performed at pixel resolution, on the basis of a model proposed by Jain et al (1, 35, 41-43). This model takes into account the transfer of solutes through the capillary walls and within the interstitial spaces by both diffusion in the direction of the concentration gradients and convection in the direction of the pressure gradients. Relying on few assumptions, which are described herein two differential equations were solved. The first equation applies to regions with low IFP were positive pressure gradients favors net transfer of contrast agent from the capillaries into the tissue (see equation 1) and the second one applies to intra tumoral regions with high IFP where a pressure gradients in the interstitium favors outward convection of the contrast agent and reduces the net delivery to these regions (see equation 2).
Where Ct is the contrast agent concentration in the entire tissue, Dinf is the contrast agent-infusion rate, k^trans the transcapillary transfer constant, k^ΔP the pressure gradients derived transfer rate which also depends on the shape, morphology, and the hydraulic conductivity of the tissue (1). νe represents the extracellular extravascular (EES) volume fraction, and νp the intravascular volume fraction. The parameters ai, and mi (i=1,2) represent the average plasma pharmacokinetic amplitude and time constant parameters, respectivelyt calculated to be a1=2.94 kg/l, a2=4.85 kg/l, m1=0.73 min^−1, and m2=0.075 min^−1 as previously reported (44).
A nonlinear “best fit” algorithm (40) was applied to fit the time courses to Equations 1 and 2, calculating the proportion of variability, R^2, per pixel for each fitting. […]

[5] = H460 tumors, within hours after administration
[6] = steady state infusion, ~5 h after collagenase 0.4 mg/kg
[7] = inside H460 tumors (excluding the rim), 5 h after collagenase administration

## O=C1CCC(N2C(=O)c3ccccc3C2=O)C(=O)N1 (stereo not drawn) [thalidomide]
Fibrosarcoma mouse model; accompanying the decline in IFP
  plasma volume fraction and fractional efflux rate from the interstitial space to the plasma: increased
Fibrosarcoma mouse model; fibrosarcoma mouse model
  effect on IFP: decline

## hyaluronidase
tumors
  effect on IFP: reduce IFP
  effect on uptake of antibodies: increase the uptake

## O=C([O-])CN(CCN(CC(=O)[O-])CC(=O)O)CCN(CC(=O)[O-])CC(=O)O.[Gd+3] [GdDTPA, gadolinium-diethylenetriaminepentaacetic acid]
[1]
  steady-state tissue GdDTPA concentration further inside the tumor: low or null values
  steady-state tissue GdDTPA concentration in the tumor periphery: ~0.5 mmol/L
  steady-state tissue GdDTPA concentration outside the tumor boundaries: ~1 mmol/L
[2]
  a1, average plasma pharmacokinetic amplitude: 2.94 kg/L
  a2, average plasma pharmacokinetic amplitude: 4.85 kg/L
  m1, plasma time constant parameter: 0.73 min⁻¹
  m2, plasma time constant parameter: 0.075 min⁻¹

## collagenase
[3]; within hours
  effect on IFP: reduced IFP
[3]
  increase in the tumor uptake and distribution of a monoclonal antibody: 2 fold
H460 tumors; H460 tumors
  steady state tissue GdDTPA concentration in the internal parts after collagenase treatment: significantly increased
H460 tumors; [5]
  effect on IFP: reduces IFP
  effect on uptake of a contrast agent: increases the uptake
H460 tumors; [6]
  outward convection after collagenase treatment: vanished
  transfer of the contrast agent in the interior regions of the tumor after collagenase: markedly increased
[4]; H460 tumors, ~5 h after collagenase 0.4 mg/kg
  all other vascular parameters derived from the analysis, change after collagenase: did not change significantly
[4]; H460 tumors, from negative to positive values
  change of pressure dependent transfer constant in the tumors' central/internal regions after collagenase: significant increase; also recorded: significant change
[4]; increased from (−2.6±3.7)*10^−3, paired t-test, p=0.016
  k^ΔP in the internal parts of the tumors following collagenase treatment: 8.6±8.9 *10^−3
[4]; [7]
  K^trans*10^−3: 3.7 ± 3.4 *10^−3
  […]e (extracellular extravascular volume fraction): 0.24 ± 0.06
  […]p (intravascular volume fraction): 0.053 ± 0.027
[4]; inside H460 tumors (excluding the rim), 5 h after collagenase administration, 0.4 mg/kg i.v., mean ± SD
  K^□p*10^−3 (pressure dependent transfer constant): 8.6 ± 8.9 *10^−3
tumors
  effect on IFP: reduce IFP
  effect on uptake of antibodies: increase the uptake
